Assay results from US20210030005A1, “BENZOXABOROLE COMPOSITIONS HAVING A GROWTH ENHANCING EFFECT” (BORAGEN, INC., priority 2018, published 2021).

Key:
[1] = test system: Asian Soybean Rust (Phakopsora pachyrhizi); assay: Field trial, Asian Soybean Rust severity on soybean; format: in vivo
Procedure: (§1) In this example, diseased soybeans having Asian Soybean Rust (Phakopsora pachyrhizi) were treated with BAG8 and Azoxystrobin. Testing was performed to assess the fungicidal effect of the compounds on Asian Soybean Rust and to assess the growth enhancing effects of the compounds on the diseased soybeans.
(§2) Soybeans were planted into 6×30 ft plots and replicated four times in a randomized complete block design. Two treatments and an untreated control were tested for efficacy against Asian Soybean Rust (Phakopsora pachyrhizi) and assessed for yield at the conclusion of the growing season. Foliar applications of the two treatments, BAG8 at 0.25 pounds of active ingredient per acre and azoxystrobin at 0.25 pounds of active ingredient per acre, were applied to the plots at two separate times: growth stage R1 (flowering) and growth stage R3 (bean pod formation). Best practices were used consistently across the test plots with regard to field conditions such as fertilization, insect control, weed control, and irrigation. Disease assessments were taken in each plot 28 days after the final foliar fungicide application. At maturity, each plot was harvested using standard harvesting equipment. After shelling, the beans were weighed at 13% moisture and yield calculations extrapolated to bushels per acre.
(§3) Analysis of variance (ANOVA) was used to examine disease severity data and means were separated using Fisher's least significant difference (LSD) method at α=0.05. […]

diseased soybeans = assay: Field trial, yield of diseased soybeans; format: in vivo, soybean
Procedure: as §1, §2, §3

diseased maize = assay: Field trial, yield of diseased maize; format: in vivo; conditions: for Yield: 11% moisture
Procedure: (§4) In this example, diseased maize having Southern Rust of Maize (Puccinia polysora) was treated with BAG8, Azoxystrobin, and Boscalid. Testing was performed to assess the fungicidal effect of the compounds on Southern Rust of Maize (Puccinia polysora) and to assess the growth enhancing effect of the compounds on the diseased maize.
(§5) Maize was planted into 6×30 ft plots and replicated four times in a randomized complete block design. Three treatments and an untreated control were tested for efficacy against Southern Rust of Maize (Puccinia polysora) and assessed for yield at the conclusion of the growing season. Foliar applications of the three treatments, BAG8 at 0.25 pounds of active ingredient per acre, azoxystrobin at 0.25 pounds of active ingredient per acre, and boscalid at 0.24 pounds of active ingredient per acre, were applied to the plots at growth stage V8. Best practices were used consistently across the test plots with regard to field conditions such as fertilization, insect control, weed control, and irrigation. Disease assessments were taken in each plot 28 days after the foliar fungicide application. At maturity, each plot was harvested using standard harvesting equipment. After shelling, the kernels were weighed at 11% moisture and yield calculations extrapolated to bushels per acre.
as §3

[2] = test system: Southern Rust of Maize (Puccinia polysora); assay: Field trial, Southern Rust of Maize severity on maize; format: in vivo
Procedure: as §4, §5, §3

Tomato = conditions: Davis et al. 2003, cited from earlier work

CO/C=C(/C(=O)OC)c1ccccc1Oc1cc(Oc2ccccc2C#N)ncn1 [Azoxystrobin, reference compound]
reduced disease in comparison to untreated control ([1]; 0.25 lb ai/A foliar): 66% | Disease Severity (% Leaf Coverage) ([1]; 0.25 lb ai/A foliar at R1 and R3, 28 days after final application): 30.6 d % Leaf Coverage | increased soybean yield (diseased soybeans; 0.25 lb ai/A foliar): 305% | Yield (diseased soybeans; 0.25 lb ai/A foliar at R1 and R3, harvest at maturity, 13% moisture): 59.2 a bu/A | increased yield relative to untreated control (diseased maize; 0.25 lb ai/A foliar): 205% | Yield (diseased maize; 0.25 lb ai/A foliar at V8, harvest at maturity): 151.1 a bu/A | reduced disease relative to the untreated control ([2]; 0.25 lb ai/A foliar): 100% | Disease Severity (% Leaf Coverage) ([2]; 0.25 lb ai/A foliar at V8, 28 days after application): 0.0 c % Leaf Coverage

O=C(Nc1ccccc1-c1ccc(Cl)cc1)c1cccnc1Cl [Boscalid]
Yield (diseased maize; 0.24 lb ai/A foliar at V8, harvest at maturity): 91.6 c bu/A | Disease Severity (% Leaf Coverage) ([2]; 0.24 lb ai/A foliar at V8, 28 days after application): 25.1 b % Leaf Coverage

OB(O)O [boric acid]
yield and shelf-life of harvested tomatoes (Tomato): higher yield and longer shelf-life for harvested tomatoes | growth of the plant (Tomato; hydroponic fertilizer): increased growth of the plant, plant parts, and plant propagation materials
